Assay results taken from PMC11796197, “Targeting AI-2 quorum sensing: harnessing natural products against Streptococcus suis biofilm infection” (Veterinary Research, 2025).

Biological target: LuxS (S-ribosylhomocysteinase) (Streptococcus suis, UniProt A4VZM6)
Experiment: Ellman (DTNB) homocysteine assay, […] nm, SRH as substrate
Assay type: biochemical
Details: SRH 0-1200 uM, sodium phosphate buffer, 37 C, 15 min, LuxS 1 mg/mL

Sequence of LuxS (S-ribosylhomocysteinase) (A4VZM6 whole entry): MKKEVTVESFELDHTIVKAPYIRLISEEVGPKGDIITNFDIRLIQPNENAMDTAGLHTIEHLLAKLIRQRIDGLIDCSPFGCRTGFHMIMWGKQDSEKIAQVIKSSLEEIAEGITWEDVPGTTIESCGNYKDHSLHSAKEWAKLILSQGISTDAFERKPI

Row | SMILES | Ellman (DTNB) homocysteine assay, 412 nm, SRH as substrate (competitive) | Ellman (DTNB) homocysteine assay, 412 nm, SRH as substrate (noncompetitive)
1 | COc1ccc(/C=C/c2cc(O)cc(O[C@@H]3O[C@H](CO)[C@@H](O)[C@H](O)[C@H]3O)c2)cc1O [RH, rhapontin] | indicating a competitive inhibitory impact of RH on LuxS | –
2 | O=C(/C=C/c1ccc(O)c(O)c1/C=C/c1ccc(O)c(O)c1)O[C@H](Cc1ccc(O)c(O)c1)C(=O)O [SAA, salvianolic acid A] | – | suggesting a noncompetitive inhibitory effect of SAA on LuxS
